Where a name gives a salt, the structure may show the parent alone.
Tested on: mouse
Experiment: toxicity on intraperitoneal dosage in the mouse
Type: in vivo
Experimental: In using the compounds of this invention to inhibit prolactin secretion or to treat Parkinson's syndrome or for other pharmacologic action, a pharmaceutically active compound according to Formula I above, or a salt thereof with a pharmaceutically-acceptable acid, is administered to a subject suffering from Parkinsonism or in need of having their prolactin level reduced in an amount effective to alleviate some of the symptoms of Parkinsonism or to reduce an elevated prolactin level. Oral administration is preferred. If parenteral administration is used, the injection is preferably by the subcutaneous route using an appropriate pharmaceutical formulation. […] In particular, with intravenous or intramuscular administration, a water soluble pharmaceutically-acceptable salt is employed. For oral administration, a pharmaceutically active compound according to Formula I either as the free base or in the form of a salt thereof can also be mixed with standard pharmaceutical excipients and loaded into empty telescoping gelatin capsules or pressed into tablets. The oral dosage range is from about 0.01 to 10 mg/kg of mammalian weight and the parenteral dose range from about 0.0025 to 2.5 mg/kg of mammalian weight.

CCCN(CCC)C1CCc2c[nH]cc2C1 (racemic) [dl-5-di-n-propylamino-4,5,6,7-tetrahydro-2H-benzo[c]pyrrole maleate]
deaths (10-30 mg/kg): no deaths | deaths (fatal dosages) (100-300 mg/kg): fatal

Source: patent publication US4264622A, “Tetrahydro-2H-benzo[c]pyrroles to inhibit prolactin secretion” (Eli Lilly and Company, priority 1980, dated 1981)
